Laboratory results: patent US20130142882A1, “METHODS AND COMPOSITIONS FOR TREATMENT, MODIFICATION AND MANAGEMENT OF BONE CANCER PAIN” (GOLDEN BIOTECHNOLOGY CORPORATION, priority 2011, published 2013)

Test system: rat model of bone cancer pain (Walker 256 rat mammary gland carcinoma cells injected into the right tibia)
Experiment: Mechanical allodynia (Von Frey test) in a rat model of bone cancer pain
Type: in vivo, Rat (Sprague-Dawley)
Settings: 30 μg/kg s.c. every second day
Experimental: The objective of this study was to assess the potential anti-nociceptive and anti-tumourigenic effects of Compound 1, at doses of 15, 30 and 45 mg/kg, in an animal model of bone cancer pain. Metastasis of cancer cells to the bone was modeled by injecting Walker 256 rat mammary gland carcinoma cells into the medullary cavity of the right tibia (Mao-Yinga, et al. A rat model of bone cancer pain induced by intra-tibia inoculation of Walker 256 mammary gland carcinoma cells. Biochem Biophys Res Commun 2006; 345: 1292-1298). The development of mechanical allodynia was monitored using an established behavioural test (Von Frey test). Treatment administration was chronic, from the day of surgery, and administered twice daily for 21 days to determine whether there was a prophylactic effect on the development of mechanical allodynia. Zoledronic acid was used as a reference substance. No regulatory test guidelines were applicable to this study.
Rats have been studied in this model of bone cancer pain. The route of administration of Compound 1 and vehicle was oral. The doses of Compound 1 were 15, 30 and 45 mg/kg, twice a day (approximately 10 h apart) for 21 days.
The dose of zoledronic acid was 30 μg/kg, as a single administration, every second day from the day of surgery, based on historical data. The route of administration of zoledronic acid was subcutaneous.
The dose volume for test substance and vehicle treatments was 5 mL/kg. The vehicle for Compound 1 was corn oil. Each rat allocated to test substance or vehicle treatments received an oral dose, by gavage, twice daily (approximately 8 am and 6 pm) for 21 consecutive days. The dose volume for the reference substance treatment was 1 mL/kg. Each rat allocated to reference substance treatment received a single subcutaneous dose, by injection (approximately 8 am) every second day from the day of surgery.
Cell preparation. Walker 256 rat mammary gland carcinoma cells (obtained from the American Type Culture Collection (ATCC)) were harvested from sub-confluent cultures growing in vitro and the number of viable cells determined. Cells were then re-suspended in sterile phosphate buffered saline (PBS) at a concentration of 4×10^5 cells. Female Sprague-Dawley rats were intratibially injected in the right leg with 4×10^5 Walker 256 rat mammary gland carcinoma cells in a volume of 6 μL as detailed in Surgical procedure below.
Baseline behavioural testing. The rats were moved to the procedure room 5 days prior to behavioural testing. The rats were then housed, dosed and observed in the procedure room. The behavioural test was performed on all rats on 2 separate occasions prior to surgery, to establish baseline values. Pre-surgery baseline values were taken as the data from the final (second) day of testing (the data from the first day of testing was not included but classed as part of the acclimatisation).
Mechanical allodynia (Von Frey test): Each animal was placed in a wire mesh cage and a series of Von Frey filaments were applied to the plantar surface of the hind paw, from below. The filaments were applied in ascending order (starting with the weakest force), and the withdrawal threshold for both the left and right hind paws were evaluated. Each filament was indented on the mid-plantar surface of the foot to the point where it just started to bend; this was repeated approximately 8 to 10 times per filament at a frequency of approximately 1 Hz. The withdrawal threshold was defined as the lowest force of two or more consecutive Von Frey filaments to elicit a reflex withdrawal response (i.e. a brief paw flick).
Surgical procedure. The animals were surgically prepared over 2 days. Each rat was anaesthetised as necessary with isofluorane in […]. The surface around the incision site was shaved and sterilised. Under aseptic conditions, an incision was made in the skin over the top of the right tibia to expose the tibia head with minimal damage. […]

Structure (SMILES): O=P(O)(O)C(O)(Cn1ccnc1)P(=O)(O)O [Zoledronic acid, reference compound]
- Withdrawal Threshold (Log 10 (force (g) × 10 000)) on Day Post-Operative (Day 6, left paw): 5.35 Log 10 (force (g) × 10 000)
- Withdrawal threshold (g) on day post-operative (Day 6, left paw): 22.55 g
- Withdrawal Threshold (Log 10 (force (g) × 10 000)) on Day Post-Operative (Day 6, right paw): 5.28 Log 10 (force (g) × 10 000)
- Withdrawal threshold (g) on day post-operative (Day 6, right paw): 19.49 g
- Withdrawal Threshold (Log 10 (force (g) × 10 000)) on Day Post-Operative (Day 12, left paw): 5.17 Log 10 (force (g) × 10 000)
- Withdrawal threshold (g) on day post-operative (Day 12, left paw): 15.14 g
- Withdrawal Threshold (Log 10 (force (g) × 10 000)) on Day Post-Operative (Day 12, right paw): 4.98 Log 10 (force (g) × 10 000)
- Withdrawal threshold (g) on day post-operative (Day 12, right paw): 9.95 g
- Withdrawal Threshold (Log 10 (force (g) × 10 000)) on Day Post-Operative (Day 14, left paw): 5.15 Log 10 (force (g) × 10 000)
- Withdrawal threshold (g) on day post-operative (Day 14, left paw): 15.02 g
- Withdrawal Threshold (Log 10 (force (g) × 10 000)) on Day Post-Operative (Day 14, right paw): 4.99 Log 10 (force (g) × 10 000)
- Withdrawal threshold (g) on day post-operative (Day 14, right paw): 10.28 g
- Withdrawal Threshold (Log 10 (force (g) × 10 000)) on Day Post-Operative (Day 19, left paw): 5.14 Log 10 (force (g) × 10 000)
- Withdrawal threshold (g) on day post-operative (Day 19, left paw): 14.66 g
- Withdrawal Threshold (Log 10 (force (g) × 10 000)) on Day Post-Operative (Day 19, right paw): 4.97 Log 10 (force (g) × 10 000)
- Withdrawal threshold (g) on day post-operative (Day 19, right paw): 10.37 g
- Withdrawal Threshold (Log 10 (force (g) × 10 000)) on Day Post-Operative (Day 21, left paw): 5.15 Log 10 (force (g) × 10 000)
- Withdrawal threshold (g) on day post-operative (Day 21, left paw): 15.46 g
- Withdrawal threshold (g) on day post-operative (Day 21, left paw, listed as zoledronic acid): 15.46 ± 2.06 g
- Withdrawal Threshold (Log 10 (force (g) × 10 000)) on Day Post-Operative (Day 21, right paw): 5.04 Log 10 (force (g) × 10 000)
- Withdrawal threshold (g) on day post-operative (Day 21, right paw): 13.25 g
- Withdrawal threshold (g) on day post-operative (Day 21, right paw, listed as zoledronic acid): 13.25 ± 2.28 g
- Withdrawal Threshold (Log 10 (force (g) × 10 000)) on Day Post-Operative (Pre-Surgery, left paw): 5.32 Log 10 (force (g) × 10 000)
- Withdrawal threshold (g) on day post-operative (Pre-Surgery, left paw): 21.02 g
- Withdrawal Threshold (Log 10 (force (g) × 10 000)) on Day Post-Operative (Pre-Surgery, right paw): 5.30 Log 10 (force (g) × 10 000)
- Withdrawal threshold (g) on day post-operative (Pre-Surgery, right paw): 20.26 g
